According to patent US20060069132A1, “Azolecarboxamide herbicides” (priority 2004, published 2006):

Key:
barnyardgrass = assay: Test B pre-/postemergence herbicide test; format: in vivo, Echinochloa crus-galli; details: for Barnyardgrass plant response rating (0 to 100 scale) / Plant response rating, Barnyardgrass: 0 = no effect, 100 = complete control; for Barnyardgrass plant response rating: postemergence
Procedure, shortened: (§1)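 Test chemicals in a non-phytotoxic solvent mixture with surfactant were applied preemergence to seeded species and postemergence to plants 2-18 cm tall (1- to 4-leaf stage); rice and barnyardgrass were also tested in a flooded paddy at the 2-leaf stage. Visual rating versus controls after 13-15 days in greenhouse, scale 0 (no effect) to 100 (complete control).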

cocklebur = assay: Test B pre-/postemergence herbicide test; format: in vivo, Xanthium strumarium; details: for Cocklebur plant response rating (0 to 100 scale) / Plant response rating, Cocklebur: 0 = no effect, 100 = complete control; for Cocklebur plant response rating: postemergence
Procedure, shortened: as §1

bermudagrass = assay: Test C pre-/postemergence herbicide test; format: in vivo, Cynodon dactylon; details: for Bermudagrass plant response rating: Preemergence
Procedure, shortened: (§2)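 Preemergence: seeds planted and treated with compound in non-phytotoxic solvent with surfactant; postemergence: plants at 2 to 18 cm (1- to 4-leaf stage) sprayed likewise. Kept in greenhouse 12 to 14 days, then visually rated against controls, 0 (no effect) to 100 (complete control).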

Surinam grass = assay: Test C pre-/postemergence herbicide test; format: in vivo, Urochloa decumbens; details: preemergence
Procedure, shortened: as §2

morningglory = assay: Test C pre-/postemergence herbicide test; format: in vivo, Ipomoea coccinea; parameters: key to Plant response rating, Morningglory: 0 = no effect, 100 = complete control; details: preemergence
Procedure, shortened: as §2

pigweed = assay: Test C pre-/postemergence herbicide test; format: in vivo, Amaranthus retroflexus; details: preemergence
Procedure, shortened: as §2

[1] = 125 g ai/ha, visual rating, scale 0 (no effect) to 100 (complete control)
[2] = 500 g ai/ha, visual rating, preemergence
[3] = 500 g ai/ha, scale 0 to 100, 0 is no effect, 100 is complete control
[4] = 62 g ai/ha, preemergence, scale 0 to 100, 0 no effect, 100 complete control
[5] = 125 g ai/ha, scale 0 (no effect) to 100 (complete control), visual, 12 to 14 days, preemergence
[6] = 250 g ai/ha, scale 0-100, preemergence
[7] = 500 g ai/ha, scale 0 to 100, 0 no effect, 100 complete control
[8] = 500 g ai/ha, scale 0 to 100 (0 no effect, 100 complete control), visual, 12 to 14 days
[9] = 125 g ai/ha, scale 0 (no effect) to 100 (complete control), visual, 12 to 14 days
[10] = 125 g ai/ha, 0 is no effect, 100 is complete control, preemergence

| Compound | Barnyardgrass plant response rating (0 to 100 scale) (barnyardgrass; 125 g ai/ha, preemergence) | Barnyardgrass plant response rating (barnyardgrass; [1]) | Plant response rating, Barnyardgrass (barnyardgrass; [2]) | Barnyardgrass plant response rating (barnyardgrass; [3]) | Cocklebur plant response rating (0 to 100 scale) (cocklebur; 125 g ai/ha, preemergence) | Cocklebur plant response rating (cocklebur; [1]) | Plant response rating, Cocklebur (cocklebur; [2]) | Cocklebur plant response rating (cocklebur; [3]) | Plant response rating, Bermudagrass (bermudagrass; [4]) | Plant response rating, Bermudagrass (bermudagrass; [5]) | Plant response rating, Bermudagrass (bermudagrass; [6]) | Bermudagrass plant response rating (bermudagrass; [7]) | Plant response rating, Surinam Grass (Surinam grass; 62 g ai/ha, scale 0 to 100) | Plant response rating, Surinam Grass (Surinam grass; 250 g ai/ha, scale 0-100) | Plant response rating, Surinam Grass (Surinam grass; [8]) | Plant response rating, Morningglory (morningglory; 250 g ai/ha, scale 0-100) | Plant response rating, Morningglory (morningglory; [8]) | Plant response rating, Pigweed (pigweed; 62 g ai/ha, scale 0 to 100) | Plant response rating, Pigweed (pigweed; 250 g ai/ha, scale 0-100) | Plant response rating, Pigweed (pigweed; [8]) | further results |
| --- | --- | --- | --- | --- | --- | --- | --- | --- | --- | --- | --- | --- | --- | --- | --- | --- | --- | --- | --- | --- | --- |
| CCn1nc(C(C)(C)C)cc1C(=O)Nc1ccc(OC)c(OC)c1 [Compound 298] | 70 | 10 | 90 | 50 | 0 | 20 | 0 | 50 | 50 | 55 | 80 | 95 | 5 | 40 | 70 | 20 | 45 | 100 | 100 | 100 | Plant response rating, Morningglory (morningglory; [9]): 5; Plant response rating, Pigweed (pigweed; [9]): 100 |
| CCn1nc(C2(C)CC2)cc1C(=O)Nc1cc(C(=O)N2CC=CC2)ccc1F [Compound 301] | 60 | 20 | 100 | 60 | 0 | 10 | 0 | 50 | 80 | 90 | 90 | 95 | 0 | 80 | 90 | 10 | 60 | 100 | 100 | 100 | Plant response rating, Morningglory (morningglory; 62 g ai/ha, scale 0 to 100): 5; Plant response rating, Morningglory (morningglory; [9]): 5; Plant response rating, Pigweed (pigweed; [9]): 100 |
| C=CCNC(=O)c1cccc(NC(=O)c2nn(C(C)C)nc2CC)c1 [Compound 382] |  | 0 |  | 0 |  | 10 |  | 10 | 60 |  | 85 |  |  | 100 | 100 | 65 | 100 | 95 | 100 | 100 | Plant response rating (0 to 100 scale), Barnyardgrass (barnyardgrass; [10]): 80; Plant response rating (0 to 100 scale), Cocklebur (cocklebur; [10]): 0; Plant response rating (0 = no effect, 100 = complete control), Bermudagrass (bermudagrass; 125 g ai/ha, preemergence): 80; Plant response rating, Bermudagrass (bermudagrass; 500 g ai/ha, scale 0 to 100 (0 no effect, 100 complete control), visual, 12 to 14 days, preemergence): 90; Plant response rating (0 = no effect, 100 = complete control), Surinam Grass (Surinam grass; 125 g ai/ha): 95; Plant response rating, Morningglory (morningglory; 62 g ai/ha, scale 0 to 100): 0; Plant response rating (0 = no effect, 100 = complete control), Morningglory (morningglory; 125 g ai/ha): 25; Plant response rating (0 = no effect, 100 = complete control), Pigweed (pigweed; 125 g ai/ha): 95 |
